Measured values as given in patent US20260224589A1 (priority 2023, published 2026).
Read-outs that look alike come from different tables or passages of the source.

Tested on: AsPC-1 cells
Test: phospho-ERK HTRF assay in AsPC-1 cells, 4 h treatment
Format: cell-based
Conditions: Homo sapiens, ASPC1
[1] = AsPC-1, 4H, Table 1a class column, read-out: pERK IC50 activity range (*)
[2] = AsPC-1, 4H, Table 1a, read-out: PERK IC50 (AsPC-1, 4H)
[3] = AsPC-1, 4h, Table 1b, read-out: PERK IC50 (AsPC-1, 4h)

Structure (SMILES) | IC50 [1] | IC50 [2] | IC50 [3]
CN(C)C(=O)c1nn2c(c1Cl)CN(c1nc(OC[C@@]34CCCN3C[C@H](F)C4)nc3c1COC(c1cc(N)ccc1C(F)(F)F)C3)CCC2 (stereo in doubt) [230a, 5-((S)-7-(5-amino-2-(trifluoromethyl)phenyl)-2-(((2R,7aS)-2-fluorotetrahydro-1H-pyrrolizin-7a(5H)-yl)methoxy)-7,8-dihydro-5H-pyrano[4,3-d]pyrimidin-4-yl)-3-chloro-N,N-dimethyl-5,6,7,8-tetrahydro-4H-pyrazolo[1,5-a][1,4]diazepine-2-carboxamide] | > 500 nM | > 10000 nM | –
CN(C)C(=O)c1nn2c(c1Cl)CN(c1nc(OC[C@@]34CCCN3C[C@H](F)C4)nc3c1COC(c1cc(N)ccc1C(F)(F)F)C3)CCC2 (stereo in doubt) [230b, 5-((R)-7-(5-amino-2-(trifluoromethyl)phenyl)-2-(((2R,7aS)-2-fluorotetrahydro-1H-pyrrolizin-7a(5H)-yl)methoxy)-7,8-dihydro-5H-pyrano[4,3-d]pyrimidin-4-yl)-3-chloro-N,N-dimethyl-5,6,7,8-tetrahydro-4H-pyrazolo[1,5-a][1,4]diazepine-2-carboxamide] | 31 to 100 nM | 13 nM | –
CS(=O)(=O)c1nn2c(c1Cl)CN(c1nc(OC[C@@]34CCCN3C[C@H](F)C4)nc3c1CO[C@H](c1c(C(F)(F)F)ccc(N)c1F)C3)CCC2 [211a, 3-((S)-4-(3-Chloro-2-(methylsulfonyl)-7,8-dihydro-4H-pyrazolo[1,5-a][1,4]diazepin-5(6H)-yl)-2-(((2R,7aS)-2-fluorotetrahydro-1H-pyrrolizin-7a(5H)-yl)methoxy)-7,8-dihydro-5H-pyrano[4,3-d]pyrimidin-7-yl)-2-fluoro-4-(trifluoromethyl)aniline] | 101 to 500 nM | 126 nM | –
CS(=O)(=O)c1nn2c(c1Cl)CN(c1nc(OC[C@@]34CCCN3C[C@H](F)C4)nc3c1CO[C@@H](c1c(C(F)(F)F)ccc(N)c1F)C3)CCC2 [211b] | > 500 nM | > 10000 nM | –
CN1CCOc2c(nn3c2CN(c2nc(OC[C@@]45CCCN4C[C@H](F)C5)nc4c2CO[C@H](c2c(C(F)(F)F)ccc(N)c2F)C4)CCC3)C1=O [212a, 11-((S)-7-(3-amino-2-fluoro-6-(trifluoromethyl)phenyl)-2-(((2R,7aS)-2-fluorotetrahydro-1H-pyrrolizin-7a(5H)-yl)methoxy)-7,8-dihydro-5H-pyrano[4,3-d]pyrimidin-4-yl)-4-methyl-3,4,9,10,11,12-hexahydro-8H-[1,4]diazepino[1′,2′:1,5]pyrazolo[3,4-f][1,4]oxazepin-5(2H)-one] | > 500 nM | 810 nM | –
CN1CCOc2c(nn3c2CN(c2nc(OC[C@@]45CCCN4C[C@H](F)C5)nc4c2CO[C@@H](c2c(C(F)(F)F)ccc(N)c2F)C4)CCC3)C1=O [212b] | > 500 nM | > 10000 nM | –
CN(C)C(=O)c1nn2c(c1Cl)CN(c1nc(OC[C@@]34CCCN3C[C@H](F)C4)nc3c1CO[C@H](c1c(F)c(N)cc(Cl)c1C(F)(F)F)C3)CCC2 [213a, 5-((S)-7-(3-amino-5-chloro-2-fluoro-6-(trifluoromethyl)phenyl)-2-(((2R,7aS)-2-fluorotetrahydro-1H-pyrrolizin-7a(5H)-yl)methoxy)-7,8-dihydro-5H-pyrano[4,3-d]pyrimidin-4-yl)-3-chloro-N,N-dimethyl-5,6,7,8-tetrahydro-4H-pyrazolo[1,5-a][1,4]diazepine-2-carboxamide] | – | – | < 10 nM
CN(C)C(=O)c1nn2c(c1Cl)CN(c1nc(OC[C@@]34CCCN3C[C@H](F)C4)nc3c1CO[C@@H](c1c(F)c(N)cc(Cl)c1C(F)(F)F)C3)CCC2 [213b] | 101 to 500 nM | 320 nM | –
CN(C)C(=O)c1nn2c(c1Cl)CN(c1nc(OC[C@@]34CCCN3C[C@H](F)C4)nc3c1CO[C@H](c1c(F)c(N)cc(F)c1C(F)(F)F)C3)CCC2 [214a, 5-((S)-7-(3-amino-2,5-difluoro-6-(trifluoromethyl)phenyl)-2-(((2R,7aS)-2-fluorotetrahydro-1H-pyrrolizin-7a(5H)-yl)methoxy)-7,8-dihydro-5H-pyrano[4,3-d]pyrimidin-4-yl)-3-chloro-N,N-dimethyl-5,6,7,8-tetrahydro-4H-pyrazolo[1,5-a][1,4]diazepine-2-carboxamide] | – | – | < 10 nM
CN(C)C(=O)c1nn2c(c1Cl)CN(c1nc(OC[C@@]34CCCN3C[C@H](F)C4)nc3c1CO[C@@H](c1c(F)c(N)cc(F)c1C(F)(F)F)C3)CCC2 [214b] | > 500 nM | 1550 nM | –
Cc1cc(N)c(F)c([C@@H]2Cc3nc(OC[C@@]45CCCN4C[C@H](F)C5)nc(N4CCCn5nc(C(=O)N(C)C)c(Cl)c5C4)c3CO2)c1C(F)(F)F [215a, 5-((S)-7-(3-amino-2-fluoro-5-methyl-6-(trifluoromethyl)phenyl)-2-(((2R,7aS)-2-fluorotetrahydro-1H-pyrrolizin-7a(5H)-yl)methoxy)-7,8-dihydro-5H-pyrano[4,3-d]pyrimidin-4-yl)-3-chloro-N,N-dimethyl-5,6,7,8-tetrahydro-4H-pyrazolo[1,5-a][1,4]diazepine-2-carboxamide] | – | – | < 10 nM
Cc1cc(N)c(F)c([C@H]2Cc3nc(OC[C@@]45CCCN4C[C@H](F)C5)nc(N4CCCn5nc(C(=O)N(C)C)c(Cl)c5C4)c3CO2)c1C(F)(F)F [215b] | 101 to 500 nM | 132 nM | –
CN(C)C(=O)c1nn2c(c1Cl)CN(c1nc(OC[C@@]34CCCN3C[C@H](F)C4)nc3c1CO[C@H](c1c(C(F)(F)F)cc(F)c(N)c1F)C3)CCC2 [216a, 5-((S)-7-(3-amino-2,4-difluoro-6-(trifluoromethyl)phenyl)-2-(((2R,7aS)-2-fluorotetrahydro-1H-pyrrolizin-7a(5H)-yl)methoxy)-7,8-dihydro-5H-pyrano[4,3-d]pyrimidin-4-yl)-3-chloro-N,N-dimethyl-5,6,7,8-tetrahydro-4H-pyrazolo[1,5-a][1,4]diazepine-2-carboxamide] | 31 to 100 nM | 49 nM | –
CN(C)C(=O)c1nn2c(c1Cl)CN(c1nc(OC[C@@]34CCCN3C[C@H](F)C4)nc3c1CO[C@@H](c1c(C(F)(F)F)cc(F)c(N)c1F)C3)CCC2 [216b] | > 500 nM | > 10000 nM | –
CN(C)C(=O)c1nn2c(c1Cl)CN(c1nc(OC[C@@]34CCCN3CC(=C(F)F)C4)nc3c1CO[C@H](c1c(C(F)(F)F)ccc(N)c1F)C3)CCC2 [231a, 5-((S)-7-(3-amino-2-fluoro-6-(trifluoromethyl)phenyl)-2-(((S)-2-(difluoromethylene)tetrahydro-1H-pyrrolizin-7a(5H)-yl)methoxy)-7,8-dihydro-5H-pyrano[4,3-d]pyrimidin-4-yl)-3-chloro-N,N-dimethyl-5,6,7,8-tetrahydro-4H-pyrazolo[1,5-a][1,4]diazepine-2-carboxamide] | 31 to 100 nM | 32 nM | –
CN(C)C(=O)c1nn2c(c1Cl)CN(c1nc(OC[C@@]34CCCN3CC(=C(F)F)C4)nc3c1CO[C@@H](c1c(C(F)(F)F)ccc(N)c1F)C3)CCC2 [231b, 5-((R)-7-(3-amino-2-fluoro-6-(trifluoromethyl)phenyl)-2-(((S)-2-(difluoromethylene)tetrahydro-1H-pyrrolizin-7a(5H)-yl)methoxy)-7,8-dihydro-5H-pyrano[4,3-d]pyrimidin-4-yl)-3-chloro-N,N-dimethyl-5,6,7,8-tetrahydro-4H-pyrazolo[1,5-a][1,4]diazepine-2-carboxamide] | > 500 nM | > 10000 nM | –
